From the supplement of paper PMC10307832

Each cell line was assayed with Cc1ccc2nc(NCCN)c3ncc(C)n3c2c1 + CC(C)C[C@H](NC(=O)[C@H](Cc1ccccc1)NC(=O)c1cnccn1)B(O)O [Bortezomib] (partner 0.002 µM) (assay: relative viability (nuclei count vs DMSO), 5 days (fraction); higher = more cells survive). Details: first compound 0.04 µM.
Method in brief: (§1)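 A single step with final 0.05% Triton X-100, 1% formaldehyde and 1 ug/ml Hoechst fixed the cells and stained nuclei 5 days after treatment. Lung cancer cell lines in 1536-well plates had been treated by pin tool the day after seeding with one drug alone or a fixed anchor-drug dose plus five library-drug doses (not always all listed) in √10 steps, and nuclei were counted on 4× images. Relative viability is the ratio of nuclei in treated wells to nuclei in vehicle wells, taken as the median of duplicate plates.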
In the case of HOP-62, the relative viability is reported as 1.02.
Work on HCC-44 yielded a relative viability of 0.93.
LU99A was tested, and the relative viability was 1.26.
BEN gave a relative viability of 0.929.
HARA showed a relative viability of 1.14.
HCC-78 gave a relative viability of 0.52.
For NCI-H322M, the relative viability was 1.29.
LCLC-97TM1 showed a relative viability of 0.846.
With NCI-H2009 the relative viability was 1.06.
A-427 showed a relative viability of 1.05.
In the case of NCI-H441, the relative viability is reported as 0.72.
NCI-H661 gave a relative viability of 0.909.
For NCI-H1734, the relative viability was 1.04.
In the case of NCI-H460, the relative viability is reported as 1.05.
With NCI-H2347 the relative viability was 1.09.
For SK-LU-1, the relative viability was 1.39.
Work on 201T yielded a relative viability of 1.11.
NCI-H1915 gave a relative viability of 0.977.
HCC-827 showed a relative viability of 1.12.
For LXF-289, the relative viability was 1.01.
NCI-H23 gave a relative viability of 1.12.
For NCI-H647, the relative viability was 0.943.
In the case of NCI-H1651, the relative viability is reported as 0.966.
EPLC-272H showed a relative viability of 0.914.
With NCI-H1792 the relative viability was 0.963.
With NCI-H1355 the relative viability was 1.25.
Work on NCI-H3122 yielded a relative viability of 0.957.
For NCI-H1437, the relative viability was 0.628.
Work on NCI-H1755 yielded a relative viability of 1.02.
Work on NCI-H2023 yielded a relative viability of 1.17.
With HCC-15 the relative viability was 1.02.
Cell Line PC-14 has a relative viability of 0.957.
In the case of EKVX, the relative viability is reported as 0.998.

Same assay, conditions: first compound 0.1265 µM
With HOP-62 the relative viability was 0.692.
HCC-44 was tested, and the relative viability was 0.897.
LU99A gave a relative viability of 1.08.
BEN showed a relative viability of 0.789.
Cell Line HARA has a relative viability of 1.11.
With HCC-78 the relative viability was 0.424.
Work on NCI-H322M yielded a relative viability of 1.1.
LCLC-97TM1 was tested, and the relative viability was 0.614.
For NCI-H2009, the relative viability was 1.01.
Work on A-427 yielded a relative viability of 1.15.
NCI-H441 was tested, and the relative viability was 0.463.
Work on NCI-H661 yielded a relative viability of 0.868.
Work on NCI-H1734 yielded a relative viability of 0.965.
In the case of NCI-H460, the relative viability is reported as 1.02.
In the case of NCI-H2347, the relative viability is reported as 0.919.
Cell Line SK-LU-1 has a relative viability of 1.28.
In the case of 201T, the relative viability is reported as 1.2.
Work on HCC-827 yielded a relative viability of 1.05.
LXF-289 gave a relative viability of 0.97.
Cell Line NCI-H23 has a relative viability of 1.03.
NCI-H647 gave a relative viability of 0.783.
NCI-H1651 showed a relative viability of 0.954.
Cell Line EPLC-272H has a relative viability of 0.782.
For NCI-H1792, the relative viability was 0.915.
For NCI-H1355, the relative viability was 1.19.
Cell Line NCI-H3122 has a relative viability of 1.03.
Work on NCI-H1437 yielded a relative viability of 0.467.
For NCI-H1755, the relative viability was 0.99.
NCI-H2023 was tested, and the relative viability was 1.01.
Work on HCC-15 yielded a relative viability of 1.
With PC-14 the relative viability was 0.884.
Work on EKVX yielded a relative viability of 0.994.

Same assay, conditions: first compound 0.4 µM
HOP-62 gave a relative viability of 0.613.
With HCC-44 the relative viability was 0.806.
In the case of LU99A, the relative viability is reported as 1.07.
Cell Line BEN has a relative viability of 0.849.
Work on HARA yielded a relative viability of 1.13.
HCC-78 was tested, and the relative viability was 0.365.
For NCI-H322M, the relative viability was 1.24.
LCLC-97TM1 gave a relative viability of 0.767.
NCI-H2009 was tested, and the relative viability was 0.987.
Cell Line A-427 has a relative viability of 0.929.
NCI-H441 was tested, and the relative viability was 0.423.
NCI-H661 showed a relative viability of 0.595.
With NCI-H1734 the relative viability was 0.942.
In the case of NCI-H460, the relative viability is reported as 1.08.
Cell Line NCI-H2347 has a relative viability of 0.932.
SK-LU-1 showed a relative viability of 0.989.
201T gave a relative viability of 1.09.
Cell Line NCI-H1915 has a relative viability of 0.685.
Work on HCC-827 yielded a relative viability of 0.958.
Work on LXF-289 yielded a relative viability of 0.987.
Cell Line NCI-H23 has a relative viability of 1.08.
Work on NCI-H647 yielded a relative viability of 0.999.
NCI-H1651 was tested, and the relative viability was 1.07.
In the case of EPLC-272H, the relative viability is reported as 0.911.
Cell Line NCI-H1792 has a relative viability of 0.912.
NCI-H1355 showed a relative viability of 1.02.
For NCI-H3122, the relative viability was 1.05.
Work on NCI-H1437 yielded a relative viability of 0.474.
NCI-H1755 gave a relative viability of 0.897.
Cell Line NCI-H2023 has a relative viability of 0.938.
With HCC-15 the relative viability was 0.864.
In the case of PC-14, the relative viability is reported as 0.761.
EKVX showed a relative viability of 0.996.

Same assay, conditions: first compound 1.265 µM
HOP-62 gave a relative viability of 0.86.
HCC-44 showed a relative viability of 0.882.
Cell Line LU99A has a relative viability of 1.2.
BEN gave a relative viability of 0.834.
HARA was tested, and the relative viability was 1.06.
In the case of NCI-H322M, the relative viability is reported as 1.18.
Cell Line LCLC-97TM1 has a relative viability of 0.937.
Cell Line NCI-H2009 has a relative viability of 0.97.
Cell Line A-427 has a relative viability of 0.978.
In the case of NCI-H441, the relative viability is reported as 0.533.
For NCI-H1734, the relative viability was 0.935.
NCI-H460 showed a relative viability of 1.08.
NCI-H2347 gave a relative viability of 1.14.
SK-LU-1 gave a relative viability of 1.29.
With 201T the relative viability was 1.11.
Work on NCI-H1915 yielded a relative viability of 0.964.
In the case of HCC-827, the relative viability is reported as 1.09.
LXF-289 was tested, and the relative viability was 0.984.
Cell Line NCI-H23 has a relative viability of 1.02.
Work on NCI-H647 yielded a relative viability of 0.864.
In the case of NCI-H1651, the relative viability is reported as 0.972.
Cell Line EPLC-272H has a relative viability of 0.805.
NCI-H1792 showed a relative viability of 0.94.
NCI-H1355 was tested, and the relative viability was 1.14.
With NCI-H3122 the relative viability was 0.985.
In the case of NCI-H1437, the relative viability is reported as 0.539.
In the case of NCI-H1755, the relative viability is reported as 0.956.
For NCI-H2023, the relative viability was 1.16.
In the case of HCC-15, the relative viability is reported as 0.975.
PC-14 showed a relative viability of 0.904.
EKVX gave a relative viability of 1.17.

Same assay, conditions: first compound 4 µM
HOP-62 gave a relative viability of 0.432.
With HCC-44 the relative viability was 0.922.
With LU99A the relative viability was 1.
With BEN the relative viability was 0.868.
HARA was tested, and the relative viability was 1.1.
With HCC-78 the relative viability was 0.444.
NCI-H322M was tested, and the relative viability was 1.27.
LCLC-97TM1 gave a relative viability of 0.585.
Work on NCI-H2009 yielded a relative viability of 0.875.
For A-427, the relative viability was 0.962.
NCI-H441 gave a relative viability of 0.438.
With NCI-H661 the relative viability was 0.651.
NCI-H1734 gave a relative viability of 0.999.
Work on NCI-H460 yielded a relative viability of 1.01.
NCI-H2347 showed a relative viability of 1.07.
With SK-LU-1 the relative viability was 1.02.
With 201T the relative viability was 1.11.
For NCI-H1915, the relative viability was 0.915.
Work on HCC-827 yielded a relative viability of 1.01.
LXF-289 showed a relative viability of 0.994.
In the case of NCI-H23, the relative viability is reported as 0.672.
Work on NCI-H647 yielded a relative viability of 0.707.
Work on NCI-H1651 yielded a relative viability of 0.676.
EPLC-272H gave a relative viability of 0.97.
Cell Line NCI-H1792 has a relative viability of 0.968.
For NCI-H1355, the relative viability was 1.06.
NCI-H3122 was tested, and the relative viability was 1.1.
Work on NCI-H1437 yielded a relative viability of 0.557.
NCI-H1755 showed a relative viability of 1.02.
NCI-H2023 showed a relative viability of 0.858.
HCC-15 showed a relative viability of 0.783.
Work on PC-14 yielded a relative viability of 0.782.
EKVX gave a relative viability of 0.951.

Each cell line was assayed with Cc1ccc2nc(NCCN)c3ncc(C)n3c2c1 + Nc1ncn([C@H]2C[C@H](O)[C@@H](CO)O2)c(=O)n1 [Decitabine] (partner 2 µM) in the same assay as above. Details: first compound 0.04 µM.
Method in brief: as §1
HOP-62 was tested, and the relative viability was 0.24.
